Patent US9538774B2, “Method of feeding livestock to improve carcass characteristics” (Value-Added Science & Technology, LLC., priority 2012, dated 2017)
Entries after “also recorded” stand apart in the source; their conditions may differ.

Legend:
[1] = test system: commercial finishing pigs; test: Example 2 feeding study: CPFA with and without ractopamine in a 40% DDGS diet; assay type: in vivo
Procedure: A second study was conducted to evaluate the effects of supplementation of CPFA, with and without ractopamine, in a diet containing a high level (40%) of DDGS, on growth performance, carcass characteristics, meat and fat quality in commercial finishing pigs. The experimental diets over a six-week feeding period were a control diet without CPFA and a diet containing 0.0375% CPFA for six weeks; then for the last three weeks a diet was fed that included ractopamine at 4.5 grams per ton for each of the control and CPFA diets. (See FIG. 4). CPFA was added to replace choice white grease in the control diet. As discussed below, no treatment effects on growth performance were observed nor for HCW, dressing percentage or loin muscle, ultimate pH, color or marbling.
Pig body weight (BW) on a pen basis was measured initially and at the end of weeks 3 and 6 to calculate average daily gain (ADG). On each weigh day, feed disappearance was measured to calculate average daily feed intake (ADFI) of pigs on pen basis. Pen ADG and ADFI were, in turn, used to calculate feed conversion ratio (F:G).
Pigs were all harvested on the same day and also weighed individually one day before harvest to obtain a final live BW. HCW was measured on carcasses immediately after harvest. Live BW and HCW of pigs were used to calculate dressing percentage using the following equation: dressing %=(HCW/live BW)×100. Backfat (BF) and loin depth (LD) were measured between the 3rd and 4th rib on each carcass using Fat-O-Meater (Generation II). Percentage of fat-free carcass lean was calculated by Fat-O-Meater using the values of backfat depth and loin depth.
One barrow and one gilt from each pen weighing closest to the mean BW of their pen were selected for evaluation of meat and belly fat quality. Twenty-four hours after carcasses were chilled at 4° C., pH of loin muscle (LM) was measured at the 10th rib using a pH meter. The pH meter was calibrated at the temperature of the LM with pH 4 and 7 buffers. After pH measurement, carcasses were fabricated. Loin muscle samples at the 10th rib were collected for evaluation of meat quality.
Each LM sample was separated into two equal halves, and vacuum-packaged and frozen at −20° C. until analysis. One section of LM sample was measured for Minolta color (L*: lightness; a*: redness; b*: yellowness), loin purge, chop purge, and Instron force (a measurement correlated with tenderness and chewiness). Japanese color score (1=extremely pale to 6=extremely dark; NPPC, 2000) and marbling score (1=1% intramuscular fat to 10=10% intramuscular fat; NPPC, 2000) were also determined by trained panelists.
The other section of the LM sample was used for sensory evaluation. Sensory assessment was performed according to the procedure described by the American Meat Science Association (1995). Samples of LM were thawed at 4° C. overnight and cut into chops approximately 1 inch thick. The chops were weighed before and immediately after cooking to determine cooking loss. After cooking, trained panelists evaluated chops for juiciness, tenderness, chewiness, flavor and off-flavor using a 10-point scale (1=extremely dry, tough, not chewy, none, or none, to 10=extremely juicy, tender, chewy, intense, or intense, respectively). […]
To determine the CPFA residue in carcass fat, each of 6 (3 barrows, 3 gilts) belly fat samples from the third section were randomly selected in control and experimental treatments. Samples were sent for analysis of individual CPFA using HPLC according to the method described by Wood (1986).
All data were analyzed using the MIXED procedure of SAS Inst. Inc. (Cary, N.C.). Pen was used as the experimental unit for all responses. The statistical model included the fixed effects of CPFA, ractopamine, CPFA×ractopamine interactions, and random effect of block. Live BW before harvest and sex were used as the covariates in analysis of carcass characteristics, meat and fat quality, if the effects of these covariates were significant (P<0.05). […]

[2] = test system: swine; settings: cited from earlier work
[3] = 40% DDGS diet, CPFA 0.0375% six weeks, ractopamine 4.5 grams per ton last three weeks
[4] = loin muscle, ractopamine 4.5 grams/ton
[5] = ractopamine 4.5 grams per ton last three weeks
[6] = sensory panel, 10-point scale, each additive alone
[7] = sensory panel, ractopamine 4.5 grams/ton
[8] = 10 or 20 ppm for 25 to 41 days pre-slaughter (Carr et. al., 2005)
[9] = 10 ppm for 28 days (Stoller et. al., 2003)
[10] = 10 ppm for 35 days prior to slaughter (Aalhus, et. al., 1990)

**Q.** Which results are given for `CC(CCc1ccc(O)cc1)NCC(O)c1ccc(O)cc1` (centres unmarked) [ractopamine]?
**A.** average daily feed intake (ADFI) [1, 3]: affected; average daily gain (ADG) [1, 3]: affected; also recorded: statistically significant positive effects; feed conversion ratio (F:G) [1, 3]: statistically significant positive effects; weight at harvest (final BW) [1, 3]: affected; also recorded: statistically significant positive effects; Instron force of LM samples ([1]; loin muscle, CPFA 0.0375% six weeks, ractopamine 4.5 grams/ton): did affect; also recorded: increase; lightness of LM [1, 4]: did affect; redness (Minolta a*) of LM [1, 4]: did affect; also recorded: reductions; yellowness (Minolta b*) of LM [1, 4]: did affect; also recorded: reductions; back fat [1, 5]: reduction; increase of the measure of carcass lean [1, 5]: 2%; loin depth [1, 5]: increase; carcass lean % ([1]; ractopamine 4.5 grams/ton, effect in words): statistically significant positive effects; juiciness score [1, 6]: Neither CPFA nor ractopamine alone affected; off-flavor score [1, 6]: Neither CPFA nor ractopamine alone affected; chewiness [1, 7]: increased; flavor score [1, 7]: reduction; tenderness [1, 7]: reduced; color scores [2, 8]: poorer; flavor scores [2, 8]: reduced; tenderness [2, 8]: reduced; Instron force of loin muscle [2, 9]: increased; chewiness score [2, 9]: increased; color score [2, 9]: reduced; tenderness score [2, 9]: reduced; hardness of fat samples taken from the loin [2, 10]: reduced; sheer force of loin muscle [2, 10]: increased
